Our source for the melting point values is patent publication US7217708B2, “3,7-Diazabicyclo [3.3.1] formulations as anti-arrhythmic compounds” (Astrazeneca AB, priority 2001, dated 2007).

Molecules are shown by their SMILES.

For orientation: melting point means the temperature, or range, at which the solid turns liquid. As for `CC(C)(C)OC(=O)NCCN1CC2CN(CCCNc3ccc(C#N)cc3)CC(C1)O2` [Example 23, Compound B], the melting point was determined as 113.5 °C.
